Reference: ChEMBL document CHEMBL1781926, “Synthesis of 1-naphtylpiperazine derivatives as serotoninergic ligands and their evaluation as antiproliferative agents” (Eur J Med Chem, 2011)

Columns and labels:
[1] = molecular target: T1, Adrenergic receptor alpha-1 (Rattus norvegicus, UniProt P15823+P23944+P43140); experiment: Displacement [3H]prazosin from alpha1 adrenergic receptor in rat brain cortex homogenates after 30 mins by liquid scintillation counting; type: tissue-based
T1 sequence (P15823 whole entry): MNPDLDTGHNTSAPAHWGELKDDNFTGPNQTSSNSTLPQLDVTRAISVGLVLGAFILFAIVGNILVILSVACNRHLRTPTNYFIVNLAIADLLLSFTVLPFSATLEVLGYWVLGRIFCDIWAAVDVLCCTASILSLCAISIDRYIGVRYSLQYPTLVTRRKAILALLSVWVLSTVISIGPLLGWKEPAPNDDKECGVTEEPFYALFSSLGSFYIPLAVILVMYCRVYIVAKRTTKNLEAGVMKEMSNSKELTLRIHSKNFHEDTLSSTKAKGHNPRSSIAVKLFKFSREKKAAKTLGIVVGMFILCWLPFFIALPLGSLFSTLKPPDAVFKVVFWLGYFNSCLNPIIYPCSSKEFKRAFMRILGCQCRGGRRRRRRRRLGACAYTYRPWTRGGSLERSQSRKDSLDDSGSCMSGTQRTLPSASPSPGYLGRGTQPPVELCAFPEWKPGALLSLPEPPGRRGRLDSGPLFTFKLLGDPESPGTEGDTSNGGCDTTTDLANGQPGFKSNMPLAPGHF
T1 sequence (P23944 whole entry): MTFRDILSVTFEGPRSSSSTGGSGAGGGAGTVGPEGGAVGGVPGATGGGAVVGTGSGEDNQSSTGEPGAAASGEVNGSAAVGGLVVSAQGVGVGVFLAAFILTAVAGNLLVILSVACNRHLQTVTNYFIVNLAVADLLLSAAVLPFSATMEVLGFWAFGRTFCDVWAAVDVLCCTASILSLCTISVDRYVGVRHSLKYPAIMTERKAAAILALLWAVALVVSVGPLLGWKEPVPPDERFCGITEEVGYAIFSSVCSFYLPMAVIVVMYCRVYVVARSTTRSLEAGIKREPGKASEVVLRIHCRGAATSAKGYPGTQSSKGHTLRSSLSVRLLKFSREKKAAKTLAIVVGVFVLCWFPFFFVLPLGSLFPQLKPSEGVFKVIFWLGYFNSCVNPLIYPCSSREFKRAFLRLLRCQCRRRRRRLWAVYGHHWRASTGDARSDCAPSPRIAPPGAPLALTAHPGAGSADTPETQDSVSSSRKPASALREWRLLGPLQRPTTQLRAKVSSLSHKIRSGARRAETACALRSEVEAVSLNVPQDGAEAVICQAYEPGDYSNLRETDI
T1 sequence (P43140 whole entry): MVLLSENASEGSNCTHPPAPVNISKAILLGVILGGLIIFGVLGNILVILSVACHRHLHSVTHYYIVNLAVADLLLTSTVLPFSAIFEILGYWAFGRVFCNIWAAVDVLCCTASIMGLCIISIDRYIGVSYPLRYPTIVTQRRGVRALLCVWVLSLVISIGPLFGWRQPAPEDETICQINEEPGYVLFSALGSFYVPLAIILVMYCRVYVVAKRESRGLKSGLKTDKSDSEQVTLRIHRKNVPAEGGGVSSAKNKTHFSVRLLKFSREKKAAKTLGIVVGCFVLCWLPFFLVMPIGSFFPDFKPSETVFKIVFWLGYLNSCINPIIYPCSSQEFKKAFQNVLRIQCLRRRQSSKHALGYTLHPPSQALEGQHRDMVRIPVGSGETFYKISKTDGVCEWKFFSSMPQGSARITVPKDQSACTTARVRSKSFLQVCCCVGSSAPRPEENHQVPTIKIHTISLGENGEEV

[2] = molecular target: T2, 5-hydroxytryptamine receptor 1A (Rattus norvegicus, UniProt P19327); experiment: Displacement of [3H]8-OH-DPAT from 5HT1A receptor in Sprague-Dawley rat brain cortex homogenates after 30 mins by liquid scintillation counting; type: tissue-based
T2 sequence (P19327 whole entry): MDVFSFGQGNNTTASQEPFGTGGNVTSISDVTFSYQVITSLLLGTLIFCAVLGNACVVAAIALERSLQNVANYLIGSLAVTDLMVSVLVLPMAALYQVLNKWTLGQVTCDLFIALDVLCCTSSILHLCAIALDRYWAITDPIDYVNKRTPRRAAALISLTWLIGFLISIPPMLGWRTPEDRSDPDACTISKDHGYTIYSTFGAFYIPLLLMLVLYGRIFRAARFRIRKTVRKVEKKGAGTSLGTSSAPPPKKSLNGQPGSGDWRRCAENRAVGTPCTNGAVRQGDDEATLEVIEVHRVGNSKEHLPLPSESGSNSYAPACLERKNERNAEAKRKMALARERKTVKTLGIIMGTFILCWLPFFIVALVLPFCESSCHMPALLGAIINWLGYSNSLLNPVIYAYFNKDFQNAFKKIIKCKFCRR

[3] = molecular target: 5-hydroxytryptamine receptor 2A (Rattus norvegicus, UniProt P14842); experiment: Displacement of [3H]Ketanserin from 5HT2A receptor in Sprague-Dawley rat frontal cortical homogenates after 15 mins
[4] = molecular target: T3, 5-hydroxytryptamine receptor 2C (Rattus norvegicus, UniProt P08909); experiment: Displacement of [3H]mesulergine from 5HT2C receptor in Sprague-Dawley rat frontal cortical homogenates after 15 mins
T3 sequence (P08909 whole entry): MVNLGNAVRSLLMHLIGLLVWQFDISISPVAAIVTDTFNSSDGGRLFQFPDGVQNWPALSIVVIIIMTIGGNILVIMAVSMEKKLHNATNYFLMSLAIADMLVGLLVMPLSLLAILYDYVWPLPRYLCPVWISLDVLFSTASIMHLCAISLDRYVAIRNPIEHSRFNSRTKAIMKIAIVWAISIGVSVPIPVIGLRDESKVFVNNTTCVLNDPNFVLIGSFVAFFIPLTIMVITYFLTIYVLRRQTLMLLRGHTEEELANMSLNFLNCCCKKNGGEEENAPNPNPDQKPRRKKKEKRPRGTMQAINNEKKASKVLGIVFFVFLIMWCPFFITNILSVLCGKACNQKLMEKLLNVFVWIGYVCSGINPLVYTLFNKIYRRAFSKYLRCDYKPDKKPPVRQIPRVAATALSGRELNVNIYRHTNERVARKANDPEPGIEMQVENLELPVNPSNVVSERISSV

5-hydroxytryptamine receptor 2A, sequence (P14842 whole entry): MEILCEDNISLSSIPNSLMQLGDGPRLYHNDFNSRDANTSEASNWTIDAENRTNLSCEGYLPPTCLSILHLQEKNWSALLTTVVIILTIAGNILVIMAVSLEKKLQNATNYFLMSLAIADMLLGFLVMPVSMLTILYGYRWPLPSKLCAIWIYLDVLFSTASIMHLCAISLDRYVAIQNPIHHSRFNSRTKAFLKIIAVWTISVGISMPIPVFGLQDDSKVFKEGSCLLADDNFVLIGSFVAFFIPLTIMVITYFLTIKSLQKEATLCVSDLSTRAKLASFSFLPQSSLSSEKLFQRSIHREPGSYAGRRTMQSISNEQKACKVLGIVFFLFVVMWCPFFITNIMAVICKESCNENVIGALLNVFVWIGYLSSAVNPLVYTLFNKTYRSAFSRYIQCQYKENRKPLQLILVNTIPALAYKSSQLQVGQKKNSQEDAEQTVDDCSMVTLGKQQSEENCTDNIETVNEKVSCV

Compound	Ki [1] [nM]	Ki [2] [nM]	Ki [3] [nM]	Ki [4]	Ki ([4]; read-out: Ki) [nM]
O=C1C2C3C=CC(C3)C2C(=O)N1OCCN1CCN(c2cccc3ccccc23)CC1 (configuration not stated)	> 10000	1.58	113	Not Active	–
N#C/N=C(\NCCCN1CCN(c2cccc3ccccc23)CC1)c1ccccn1	> 10000	5.85	224	Not Active	–
O=c1c2ccccc2nnn1CCCN1CCN(c2cccc3ccccc23)CC1	562	7.79	127	–	> 10000
O=c1c2ccccc2nnn1OCCN1CCN(c2cccc3ccccc23)CC1	> 10000	> 10000	1320	Not Active	–
O=c1c2ccccc2nnn1OCCCN1CCN(c2cccc3ccccc23)CC1	800	> 10000	721	Not Active	–

Compounds with a lower Ki [3], results first:

Ki [1] [nM]	Ki [2] [nM]	Ki [3] [nM]	Ki [4]	Ki ([4]; read-out: Ki) [nM]	Compound
> 10000	0.293	91.8	Not Active	–	O=C1C2C3C=CC(C3)C2C(=O)N1OCCCN1CCN(c2cccc3ccccc23)CC1 (configuration not stated)
112	–	5.29	–	> 10000	O=c1c2ccccc2nnn1CCN1CCN(c2cccc3ccccc23)CC1
